Where a name gives a salt, the structure may show the parent alone. Read-outs that look alike come from different tables or passages of the source.
Key:
[1] = system: late components of human complement (C3-C9); experiment: Test Code 035 (C3-C9 inhibitor); type: biochemical; set-up: key: N = Inactive; settings: serial twofold dilution assay; higher well number indicates higher activity; lysis of EAC 142
Description: (§1) An active inhibitor protects C2 from C1 and C4; (ii) Test Code 035 (C3-C9 inhibitor)--This test determines the ability of the late components of human complement (C3-C9) to lyse EAC 142 in the presence of appropriate dilutions of the test compound. An active inhibitor protects EAC 142 from lysis by human C3-C9; (iii) Test Code 036 (C-Shunt inhibitor)--In this test human erythrocytes rendered fragile are lysed in autologous serum via the shunt pathway activated by cobra venom factor in the presence of appropriate dilutions of the test compound. Inhibition of the shunt pathway results in failure of lysis; (iv) Forssman Vasculitis Test--Here, the well known complement dependent lesion, Forssman vasculitis, is produced in guinea pigs by intradermal injection of rabbit anti-Forssman antiserum. […] Percent inhibition is calculated by comparison with simultaneous controls. […]

activated human C1 = biological target: T1, activated human C1 (Homo sapiens, UniProt P09871); experiment: Test Code 026 (C1 inhibitor); type: biochemical; settings: serial twofold dilution assay; higher well number indicates higher activity
T1 sequence (P09871 16-437 limits assumed): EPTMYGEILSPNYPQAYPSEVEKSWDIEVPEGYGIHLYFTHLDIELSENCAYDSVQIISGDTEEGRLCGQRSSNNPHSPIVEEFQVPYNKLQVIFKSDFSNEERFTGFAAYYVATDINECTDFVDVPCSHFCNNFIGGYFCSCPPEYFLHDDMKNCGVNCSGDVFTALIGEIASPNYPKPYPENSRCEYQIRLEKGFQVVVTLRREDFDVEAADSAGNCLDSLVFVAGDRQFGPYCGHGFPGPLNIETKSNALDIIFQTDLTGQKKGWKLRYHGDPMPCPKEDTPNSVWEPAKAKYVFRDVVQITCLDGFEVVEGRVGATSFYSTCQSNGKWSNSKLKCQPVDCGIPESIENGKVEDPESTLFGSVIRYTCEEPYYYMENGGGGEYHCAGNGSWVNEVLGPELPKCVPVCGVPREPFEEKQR
T1 sequence (P09871 438-688 limits assumed): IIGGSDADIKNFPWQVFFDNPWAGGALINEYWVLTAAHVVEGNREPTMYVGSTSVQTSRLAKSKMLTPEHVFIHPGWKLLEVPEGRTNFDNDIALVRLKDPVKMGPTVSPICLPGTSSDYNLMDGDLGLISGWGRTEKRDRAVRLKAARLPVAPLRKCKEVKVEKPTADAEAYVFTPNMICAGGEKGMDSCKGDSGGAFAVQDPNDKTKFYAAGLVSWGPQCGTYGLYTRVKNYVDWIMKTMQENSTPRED
Description: as §1

[2] = system: serum complement activity; experiment: Guinea Pig Intraperitoneal Test (GPIP); type: in vivo; settings: Cavia porcellus, ip, 200 mg./kg. i.p.
Description: An active inhibitor protects C2 from C1 and C4; (ii) Test Code 035 (C3-C9 inhibitor)--This test determines the ability of the late components of human complement (C3-C9) to lyse EAC 142 in the presence of appropriate dilutions of the test compound. An active inhibitor protects EAC 142 from lysis by human C3-C9; (iii) Test Code 036 (C-Shunt inhibitor)--In this test human erythrocytes rendered fragile are lysed in autologous serum via the shunt pathway activated by cobra venom factor in the presence of appropriate dilutions of the test compound. Inhibition of the shunt pathway results in failure of lysis; (iv) Forssman Vasculitis Test--Here, the well known complement dependent lesion, Forssman vasculitis, is produced in guinea pigs by intradermal injection of rabbit anti-Forssman antiserum. The lesion is measured in terms of diameter, edema and hemorrhage and the extent to which a combined index of these is inhibited by prior intraperitoneal injection of the test compound at 200 mg./kg. is then reported, unless otherwise stated; (v) Forssman Shock Test--Lethal shock is produced in guinea pigs by an i.v. injection of anti-Forssman antiserum and the harmonic mean death time of treated guinea pigs is compared with that of simultaneous controls; (vi) Complement Level Reduction Test--In this test, the above dosed guinea pigs, or others, are bled for serum and the complement level is determind in undiluted serum by the capillary tube method of U.S. Pat. No. 3,876,376 and compared to undosed control guinea pigs; (vii) Cap 50 Test--Here, appropriate amounts of the test compound are added to a pool of quinea Pig serum in vitro, after which the undiluted serum capillary tube assay referred to above is run. The concentration of compound inhibiting 50% is reported; (viii) Guinea Pig Intraperitoneal Test (GPIP)--Guinea pigs weighing about 300 g. are dosed intraperitoneally (i.p.) with 200 mg./kg. of the test compound dissolved in saline and adjusted to pH 7-8. […] Percent inhibition is calculated by comparison with simultaneous controls. […]

For `O=S(=O)(O)OC[C@H]1O[C@H](O[C@@H](c2nn(-c3ccccc3)c3nc4ccccc4nc23)[C@@H](COS(=O)(=O)O)OS(=O)(=O)O)[C@H](OS(=O)(=O)O)[C@@H](OS(=O)(=O)O)[C@@H]1O[C@H]1O[C@H](COS(=O)(=O)O)[C@@H](OS(=O)(=O)O)[C@H](OS(=O)(=O)O)[C@H]1OS(=O)(=O)O` [D-Erythro-2,3-dihydroxy-1-(1-phenyl-1H-pyrazolo[3,4-b]quinox] [D-Erythro-2,3-dihydroxy-1-(1-phenyl-1H-pyrazolo[3,4-b]quinoxalin-3-yl)propyl-4-O-α-D-glucopyranosyl-α-D-glucopyranoside, nonakis(H-sulfate), nonasalt with trimethylamine], the “035 In Vitro Activity (activity in wells)” value [1] was “N”.

With `Cc1cc2nc3c([C@H](O[C@H]4O[C@H](COS(=O)(=O)O)[C@@H](O[C@H]5O[C@H](COS(=O)(=O)O)[C@@H](OS(=O)(=O)O)[C@H](OS(=O)(=O)O)[C@H]5OS(=O)(=O)O)[C@H](OS(=O)(=O)O)[C@H]4OS(=O)(=O)O)[C@@H](COS(=O)(=O)O)OS(=O)(=O)O)nn(-c4ccccc4)c3nc2cc1C` [D-Erythro-2,3-dihydroxy-1-(6,7-dimethyl-1-phenyl-1H-pyrazolo[3,4-b]quinoxalin-3-yl)propyl-4-O-α-D-glucopyranosyl-α-D-glucopyranoside, nonakis(H-sulfate), nonasalt with trimethylamine] the “035 In Vitro Activity (activity in wells)” value [1] was “+1 wells” and the “026 In Vitro Activity (activity in wells)” value (activated human C1) was “+5 wells”.

With `O=S(=O)(O)OC[C@H]1O[C@H](O[C@@H](c2nn(-c3ccccc3)c3nc4ccccc4nc23)[C@@H](COS(=O)(=O)O)OS(=O)(=O)O)[C@H](OS(=O)(=O)O)[C@@H](OS(=O)(=O)O)[C@@H]1O[C@H]1O[C@H](COS(=O)(=O)O)[C@@H](OS(=O)(=O)O)[C@H](OS(=O)(=O)O)[C@H]1OS(=O)(=O)O` [D-Erythro-2,3-dihydroxy-1-(1-phenyl-1H-pyrazolo[3,4-b]quinoxalin-3-yl)propyl-4-O-α-D-glucopyranosyl-α-D-glucopyranoside, nonakis(H-sulfate), nonasodium salt] the inhibition at 200 mg/kg ([2]; 0.5 h, serum 30 minutes after injection, read-out: In Vivo Activity (Guinea Pig) (Intraperitoneal) % Inhibition, 30 minutes) was -58%, the inhibition at 200 mg/kg ([2]; 1 h, serum 60 minutes after injection, read-out: In Vivo Activity (Guinea Pig) (Intraperitoneal) % Inhibition, 60 minutes) was -56% and the inhibition at 200 mg/kg ([2]; 2 h, serum 120 minutes after injection, read-out: In Vivo Activity (Guinea Pig) (Intraperitoneal) % Inhibition, 120 minutes) was -76%.

Reference: patent US4304903A, “D-Erythro-2,3-dihydroxy-1-(1-phenyl-1H-pyrazolo(3,4-b)quinoxalin-3-y l)-propyl-4-O-α-D-glucopyranosyl-alpha-D-glucopyranoside poly(H-sulfate)salts” (American Cyanamid Company, priority 1980, dated 1981)
